Laboratory results from ChEMBL document CHEMBL4350994, “Andrographolide: A natural product template for the generation of structurally and biologically diverse diterpenes” (Eur J Med Chem, 2019).

Columns and labels:
SW-620 = test: Growth inhibition of human SW620 cells; assay type: functional
SK-OV-3 = test: Growth inhibition of human SKOV3 cells; assay type: functional
MCF7 = test: Growth inhibition of human MCF7 cells; assay type: functional
NCI/ADR-RES = test: Growth inhibition of human MCF7/ADR cells; assay type: functional
Bile acid receptor [1] = target: T1, Bile acid receptor (Homo sapiens, UniProt Q96RI1); test: Antagonist activity at Gal4 DBD-fused human FXR LBD expressed in human HepG2 cells after 8 hrs by luciferase reporter gene assay; assay type: cell-based
T1 sequence (Q96RI1 whole entry): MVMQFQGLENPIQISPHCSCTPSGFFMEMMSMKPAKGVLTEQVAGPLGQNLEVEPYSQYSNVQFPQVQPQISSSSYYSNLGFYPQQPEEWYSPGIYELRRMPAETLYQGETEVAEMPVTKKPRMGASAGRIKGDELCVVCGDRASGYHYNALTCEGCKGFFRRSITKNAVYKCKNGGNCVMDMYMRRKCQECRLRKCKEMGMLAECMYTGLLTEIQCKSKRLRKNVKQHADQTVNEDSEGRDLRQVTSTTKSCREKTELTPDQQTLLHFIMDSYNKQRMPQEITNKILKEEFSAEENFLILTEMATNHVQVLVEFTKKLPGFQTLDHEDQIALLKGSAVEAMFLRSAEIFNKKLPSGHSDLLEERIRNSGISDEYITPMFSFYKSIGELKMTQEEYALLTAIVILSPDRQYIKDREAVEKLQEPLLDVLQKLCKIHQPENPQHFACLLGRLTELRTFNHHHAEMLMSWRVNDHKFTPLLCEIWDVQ

Bile acid receptor [2] = target: T1, Bile acid receptor; test: Antagonist activity at FXR (unknown origin)
DU-145 = test: Growth inhibition of human DU145 cells; assay type: functional
Mus musculus [3] = test: Decrease in plasma triglycerides level in db/db mouse at 100 mg/kg administered daily for 6 days relative to control; assay type: functional; set-up: scale not given: the % may be the effect or the level left
A498 = test: Growth inhibition of human A498 cells; assay type: functional
Mus musculus [4] = test: Hypoglycemic activity in db/db mouse assessed as decrease in blood glucose level at 100 mg/kg administered daily for 6 days relative to control; assay type: functional; set-up: scale not given: the % may be the effect or the level left
U-251 = test: Growth inhibition of human U251 cells; assay type: functional
[5] = Growth inhibition of human OVCAR1 cells; assay type: functional
[6] = Antiviral activity against H9N2 subtype infected in MDCK cells after 2 to 3 days; assay type: functional, cell-based; details: Influenza A virus
[7] = Antiviral activity H1N1 subtype infected in MDCK cells after 2 to 3 days; assay type: functional, cell-based; details: Influenza A virus
[8] = Selectivity index, ratio of CC50 for MDCK cells to EC50 for H9N2 subtype
[9] = Selectivity index, ratio of CC50 for MDCK cells to EC50 for H1N1 subtype
[10] = Selectivity index, ratio of CC50 for MDCK cells to EC50 for H5N1 subtype
H5N1 subtype = test: Antiviral activity against H5N1 subtype infected in MDCK cells after 2 to 3 days; assay type: functional, organism-based; details: Influenza A virus
Rattus norvegicus = test: Hypoglycemic activity in diabetic rat assessed as decrease in blood glucose level at 150 mg/kg after 24 hrs relative to control; assay type: functional; set-up: scale not given: the % may be the effect or the level left
[11] = Cytotoxicity against human KKU-M213 cells assessed as reduction in cell viability after 24 hrs by MTT assay; assay type: functional, cell-based; details: KKU-M213, 24 h

## C=C1CC[C@@H]2[C@](C)(CO)[C@H](O)CC[C@@]2(C)[C@@H]1C/C=C1/C(=O)OC[C@H]1O [ANDROGRAPHOLIDE]
SW-620
  GI50: 3 to 20 µM
SK-OV-3
  GI50: 3 to 20 µM
MCF7
  GI50: 3000 to 20000 nM
NCI/ADR-RES
  GI50: 3000 to 20000 nM
Bile acid receptor [1]
  IC50: 9.7 µM
Bile acid receptor [2]
  IC50: 9700 nM
DU-145
  GI50: 3000 to 20000 nM
Mus musculus [3]
  Activity: 54%
A498
  GI50: 3 to 20 µM
Mus musculus [4]
  Activity: 64%
U-251
  GI50: 3000 to 20000 nM
[5]
  GI50: 3000 to 20000 nM

## CC(=O)OC[C@@]1(C)[C@H]2CC[C@@]3(CO3)[C@@H](C/C=C3/C(=O)OC[C@H]3OC(C)=O)[C@]2(C)CC[C@H]1OC(C)=O
SW-620
  GI50: 0.25 to 5 µM
SK-OV-3
  GI50: 0.25 to 5 µM
NCI/ADR-RES
  GI50: 250 to 5000 nM
DU-145
  GI50: 250 to 5000 nM
A498
  GI50: 0.25 to 5 µM
U-251
  GI50: 250 to 5000 nM

## C=C1CC[C@@H]2[C@]3(C)COC(C)(C)O[C@@H]3CC[C@@]2(C)[C@@H]1Cc1cc(=O)[nH]c(N)n1
DU-145
  GI50: 200 nM

## C=C1CC[C@@H]2[C@](C)(CO)[C@H](O)CC[C@@]2(C)[C@@H]1C/C=C/c1cccc(Cl)c1
DU-145
  GI50: 2000 to 27000 nM

## CCC(=O)OC[C@@]1(C)[C@H]2CC[C@@]3(CO3)[C@@H](C/C=C3/C(=O)OC[C@H]3OC(=O)/C=C/c3ccc(OC)c(OC)c3)[C@]2(C)CC[C@H]1OC(=O)CC
SW-620
  GI50: 0.4 to 7.5 µM
SK-OV-3
  GI50: 0.4 to 7.5 µM
NCI/ADR-RES
  GI50: 400 to 7500 nM
DU-145
  GI50: 400 to 7500 nM
A498
  GI50: 0.4 to 7.5 µM
U-251
  GI50: 400 to 7500 nM

## C=C1CC[C@@H]2[C@](C)(COC(C)=O)[C@H](OC(C)=O)CC[C@@]2(C)[C@@H]1C/C=C1/C(=O)OC[C@H]1OC(=O)CNC(C)=O
U-251
  GI50: 1500 nM

## C=C1CC[C@@H]2[C@](C)(CO)[C@H](O)CC[C@@]2(C)[C@@H]1C/C=C1/C(=O)OC[C@@H]1Oc1ccccc1OC
Bile acid receptor [2]
  IC50: 550 to 2000 nM

## C=C1CC[C@@H]2[C@](C)(CO)[C@H](O)CC[C@@]2(C)[C@@H]1C/C=C1/C(=O)OC[C@H]1OC(=O)CCCCC1CCSS1 (some centres not stated)
[6]
  EC50: 7.2 to 15.2 µM
[7]
  EC50: 7.2 to 15.2 µM
[8]
  Selectivity Index: 51 - 109
[9]
  Selectivity Index: 51 - 109
[10]
  Selectivity Index: 51 - 109
H5N1 subtype
  EC50: 7.2 to 15.2 µM

## C=C1CC[C@@H]2[C@]3(C)COC(C)(c4ccccc4)O[C@@H]3CC[C@@]2(C)[C@@H]1CC(C1=CCOC1=O)N1CCCC1C(=O)OC (some centres not stated)
[5]
  GI50: 1000 nM

## C=C1CC[C@@H]2[C@](C)(COC(C)=O)[C@H](OC(C)=O)CC[C@@]2(C)[C@@H]1CC(C1=CCOC1=O)n1cc(I)c(=O)[nH]c1=O (some centres not stated)
MCF7
  GI50: 2000 nM
NCI/ADR-RES
  GI50: 2000 nM
U-251
  GI50: 2000 nM
[5]
  GI50: 2000 nM

## COc1ccc(Cl)cc1C(=O)NCCc1ccc(S(=O)(=O)NC(=O)NC2CCCCC2)cc1 [GLYBURIDE]
Rattus norvegicus
  Activity: 62.02%

## C=C1CC[C@@H]2[C@](C)(CO)[C@H](O)CC[C@@]2(C)[C@@H]1C/C=C/c1ccccc1
DU-145
  GI50: 2000 to 27000 nM

## CC(C)(C)[Si](OC[C@@]1(C)[C@H]2CC[C@@]3(CO3)[C@@H](C/C=C3/C(=O)OC[C@H]3O)[C@]2(C)CC[C@H]1O)(c1ccccc1)c1ccccc1
[11]
  IC50: 8 µM

## C=C1CC[C@@H]2[C@](C)(CO)[C@H](O)CC[C@@]2(C)[C@@H]1C/C=C1/C(=O)OC[C@H]1OC(=O)c1ccccc1
U-251
  GI50: 1500 nM

## C=C1CC[C@@H]2[C@]3(C)COC(C)(c4ccccc4)O[C@@H]3CC[C@@]2(C)[C@@H]1CC(NC(Cc1ccccc1)C(=O)OC)C1=CCOC1=O (some centres not stated)
[5]
  GI50: 1400 nM

## C=C1CC[C@@H]2[C@]3(C)COC(C)(C)O[C@@H]3CC[C@@]2(C)[C@@H]1C/C=C1/C(=O)OC[C@@H]1Oc1ccc([N+](=O)[O-])cc1OC
Bile acid receptor [2]
  IC50: 550 to 2000 nM

## CCC(=O)OC[C@@]1(C)[C@H]2CC[C@@]3(CO3)[C@@H](C/C=C3/C(=O)OC[C@H]3OC(=O)/C=C/c3cccc(OC)c3)[C@]2(C)CC[C@H]1OC(=O)CC
SW-620
  GI50: 0.6 to 4.8 µM
SK-OV-3
  GI50: 0.6 to 4.8 µM
NCI/ADR-RES
  GI50: 600 to 4800 nM
DU-145
  GI50: 600 to 4800 nM
A498
  GI50: 0.6 to 4.8 µM
U-251
  GI50: 600 to 4800 nM

## C=C1CC[C@@H]2[C@](C)(CO)[C@H](O)CC[C@@]2(C)[C@@H]1C/C=C1/C(=O)OC[C@H]1OC(=O)Nc1ccccc1
NCI/ADR-RES
  GI50: 400 nM

## C[C@]1(CO)[C@H]2CC[C@@]3(CO3)[C@@H](C/C=C3/C(=O)OC[C@H]3OC(=O)/C=C/c3ccccc3)[C@]2(C)CC[C@H]1O
SW-620
  GI50: 0.5 to 9 µM
SK-OV-3
  GI50: 0.5 to 9 µM
NCI/ADR-RES
  GI50: 500 to 9000 nM
DU-145
  GI50: 500 to 9000 nM
A498
  GI50: 0.5 to 9 µM
U-251
  GI50: 500 to 9000 nM

## C=C1CC[C@@H]2[C@](C)(CO)[C@H](O)CC[C@@]2(C)[C@@H]1C/C=C1/SC(=O)NC1=O
DU-145
  GI50: 780 nM

## CC(=O)OC[C@@]1(C)[C@H]2CC[C@@]3(CO3)[C@@H](CC(Sc3ccccc3)C3=CCOC3=O)[C@]2(C)CC[C@H]1OC(C)=O (some centres not stated)
DU-145
  GI50: 2000 nM

## CCC(=O)OC[C@@]1(C)[C@H]2CC[C@@]3(CO3)[C@@H](C/C=C3/C(=O)OC[C@H]3OC(=O)/C=C/c3ccccc3)[C@]2(C)CC[C@H]1OC(=O)CC
SW-620
  GI50: 0.08 to 6 µM
SK-OV-3
  GI50: 0.08 to 6 µM
NCI/ADR-RES
  GI50: 80 to 6000 nM
DU-145
  GI50: 80 to 6000 nM
A498
  GI50: 0.08 to 6 µM
U-251
  GI50: 80 to 6000 nM

## C=C1CC[C@@H]2[C@](C)(CO)[C@H](O)CC[C@@]2(C)[C@@H]1C/C=C/c1ccc(F)cc1
DU-145
  GI50: 2000 to 27000 nM
